According to publication PMC12473159, “A Comprehensive Functional Analysis of OsPEAMT1 and OsPEAMT2 Genes in Rice (Oryza sativa L. ssp. japonica)” (Plants, 2025):

Key:
OsPEAMT2 = molecular target: T1, OsPEAMT2 (Oryza sativa, UniProt A0A0P0WPX7); test: LC-MS/MS of phosphocholine formed; format: biochemical; details: 200 uM P-EA, 200 uM S-adenosyl-L-methionine, HEPES-KOH pH 9.9, 2 mM EDTA, 30 C, 30 min
T1 construct: gene Os05g0548900; forward primer encodes MDAVAAN
T1 sequence (A0A0P0WPX7 1-495): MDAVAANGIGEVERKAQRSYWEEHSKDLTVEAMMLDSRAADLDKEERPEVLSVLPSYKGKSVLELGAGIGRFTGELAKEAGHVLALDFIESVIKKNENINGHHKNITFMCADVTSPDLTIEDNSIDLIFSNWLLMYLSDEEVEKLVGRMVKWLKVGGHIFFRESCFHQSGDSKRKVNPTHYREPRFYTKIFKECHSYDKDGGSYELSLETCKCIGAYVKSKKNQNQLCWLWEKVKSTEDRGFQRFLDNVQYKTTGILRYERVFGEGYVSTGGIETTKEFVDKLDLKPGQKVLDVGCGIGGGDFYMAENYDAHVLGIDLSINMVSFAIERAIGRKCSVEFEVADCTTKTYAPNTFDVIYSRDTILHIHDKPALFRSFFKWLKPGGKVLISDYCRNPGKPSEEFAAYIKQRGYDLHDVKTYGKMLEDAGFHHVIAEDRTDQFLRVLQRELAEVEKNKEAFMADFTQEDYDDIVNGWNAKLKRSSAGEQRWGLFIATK

OsPEAMT1 = molecular target: T2, OsPEAMT1 (Oryza sativa, UniProt Q6QA26); test: LC-MS/MS of phosphocholine formed; format: biochemical; details: 200 uM P-EA, 200 uM S-adenosyl-L-methionine, HEPES-KOH pH 9.9, 2 mM EDTA, 30 C, 30 min
T2 construct: gene PEAMT
T2 sequence (Q6QA26 20-499): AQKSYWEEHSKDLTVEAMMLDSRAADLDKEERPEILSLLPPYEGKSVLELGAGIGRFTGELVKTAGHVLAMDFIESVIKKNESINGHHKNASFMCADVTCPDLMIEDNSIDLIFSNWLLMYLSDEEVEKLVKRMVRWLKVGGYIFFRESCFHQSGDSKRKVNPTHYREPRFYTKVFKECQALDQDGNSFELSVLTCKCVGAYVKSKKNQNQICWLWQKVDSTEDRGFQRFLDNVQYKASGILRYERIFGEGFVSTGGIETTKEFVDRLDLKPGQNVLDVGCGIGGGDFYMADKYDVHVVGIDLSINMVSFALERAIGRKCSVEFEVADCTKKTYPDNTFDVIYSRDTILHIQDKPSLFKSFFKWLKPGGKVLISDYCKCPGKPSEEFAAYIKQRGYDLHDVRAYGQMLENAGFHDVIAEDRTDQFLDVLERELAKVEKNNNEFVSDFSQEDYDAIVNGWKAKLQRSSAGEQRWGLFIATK

NCCOP(=O)(O)O [P-EA]
LC-MS/MS of phosphocholine formed (OsPEAMT2): both recombinant OsPEAMT1 and OsPEAMT2 have the activity to catalyze substrate P-EA producing P-Cho
LC-MS/MS of phosphocholine formed (OsPEAMT1): both recombinant OsPEAMT1 and OsPEAMT2 have the activity to catalyze substrate P-EA producing P-Cho
